The test system of data set [1] is nontumorigenic neonatal foreskin fibroblast (NFF) cell line.
For data set [2], the system named is Trichomonas vaginalis G3 trophozoites. As to conditions: for T.vaginalis_Absorbance_Rep1: replicate 1, raw absorbance; for T.vaginalis_Absorbance_Rep2: replicate 2, raw absorbance.
The mark [3] stands for this setting: HTS, parasite screen at 1 µg/mL, replicate 1.
Where [4] appears, read: HTS, parasite screen at 1 µg/mL.
The mark [5] stands for this setting: HTS, parasite screen at 1 µg/mL, replicate 2.
Setting [6] is: NFF fibroblasts, single concentration 5 µg/mL.
The mark [7] stands for this setting: HTS replicate 1, parasite screen 1 µg/mL.
Setting [8] is: HTS replicate 2, parasite screen 1 µg/mL.

Read-outs that look alike come from different tables or passages of the source.

From article PMC7897990, “TriTOX: A novel Trichomonas vaginalis assay platform for high-throughput screening of compound libraries” (International Journal for Parasitology: Drugs and Drug …, 2021) come the findings set out here.

In the case of `COc1ccc2c3c([nH]c2c1)[C@H](C=C(C)C)N1C(=O)[C@@H]2CCCN2C(=O)[C@@H]1C3` [Fumitremorgin C], the NFF_Activity entry in data set [1] (NFF_NS1 screen at 5 µg/mL) was “I (otherwise these were reported as inactive (I))”. Besides, in data set [2] (setting [3]), the T.vaginalis_%inb_Rep1 is reported as 12.68%. Besides, in data set [2] (setting [4]), the T.vaginalis_Absorbance_Rep1 is 0.952 and the T.vaginalis_Absorbance_Rep2 was found to be 0.699. This molecule had a T.vaginalis_%inb_Rep2 in data set [2] (setting [5]) of 4.11%.
The matching figures for `CCCC[C@@H](C)[C@@H](OC(=O)C[C@@H](CC(=O)O)C(=O)O)[C@H](C[C@@H](C)C[C@H](O)CCCC[C@@H](O)C[C@H](O)[C@H](C)N)OC(=O)C[C@@H](CC(=O)O)C(=O)O` [Fumonisin B1]: “I (otherwise these were reported as inactive (I))”, 12.98%, 0.958, 0.854 and 14.05%.
The matching figures for `CCCC[C@@H](C)[C@@H](OC(=O)C[C@@H](CC(=O)O)C(=O)O)[C@H](C[C@@H](C)CCCCCC[C@@H](O)C[C@H](O)[C@H](C)N)OC(=O)C[C@@H](CC(=O)O)C(=O)O` [Fumonisin B2]: “I (otherwise these were reported as inactive (I))”, 14.71%, 0.992, 0.799 and 10.52%.
On to `C[C@H]1CC[C@H]2[C@@H](C=C[C@@H]3[C@H]4[C@@H](C)O[C@]5(O)[C@@H](CO)N(C)C(=O)[C@]45C(=O)[C@@]32C)C1` [Fusarisetin A], for which, in data set [1] (NFF_NS1 screen at 5 µg/mL), the NFF_Activity result was “I (otherwise these were reported as inactive (I))”. For the same molecule, the T.vaginalis_%inb_Rep1 in data set [2] (setting [3]) is 14.05%. In addition, in data set [2] (setting [4]), the T.vaginalis_Absorbance_Rep1 is 0.979 and the T.vaginalis_Absorbance_Rep2 is 0.869. Moreover, in data set [2] (setting [5]), the T.vaginalis_%inb_Rep2 came out at 15.01%.
The matching figures for `CC1=CC(O/C=C2\CCOC2=O)OC1=O` (centres unmarked) [GR5]: “I (otherwise these were reported as inactive (I))”, 9.60%, 0.948, 0.852 and 13.10%.
The matching figures for `CC1=C[C@H](O/C=C2/C(=O)O[C@@H]3c4ccccc4C[C@H]23)OC1=O` [GR24]: “I (otherwise these were reported as inactive (I))”, 14.00%, 0.978, 0.705 and 4.49%.
With `CNC[C@@H]1CC[C@@H](N)[C@@H](O[C@H]2[C@H](O)[C@@H](O[C@H]3OC[C@](C)(O)[C@H](NC)[C@H]3O)[C@H](N)C[C@@H]2N)O1` [Gentamicin C2b], the NFF_Activity result in data set [1] (NFF_NS1 screen at 5 µg/mL) is “I (otherwise these were reported as inactive (I))”. The same molecule had a T.vaginalis_%inb_Rep1 in data set [2] (setting [3]) of 11.00%. In data set [2] (setting [4]), this molecule gave a T.vaginalis_Absorbance_Rep1 of 0.919 and a T.vaginalis_Absorbance_Rep2 of 0.716. The T.vaginalis_%inb_Rep2 in data set [2] (setting [5]) is given as 5.20%.
For the molecule `O=c1cc(O)c1=O` [Moniliformin], the NFF_Activity result in data set [1] (setting [6]) was “I (otherwise these were reported as inactive (I))”. In data set [2] (setting [7]), this molecule returned a T.vaginalis_%inb_Rep1 of 8.57%. The same molecule registered a T.vaginalis_%inb_Rep2 in data set [2] (setting [8]) of 12.25%.
As for `COc1ccc2c(c1OC)C(=O)O[C@@H]2[C@H]1c2c(cc3c(c2OC)OCO3)CCN1C` [Narcotine], the NFF_Activity entry in data set [1] (setting [6]) was “I (otherwise these were reported as inactive (I))”. In data set [2] (setting [7]), the T.vaginalis_%inb_Rep1 was found to be 11.80%. Further, the T.vaginalis_%inb_Rep2 in data set [2] (setting [8]) was determined as 11.76%.
As for `CC1=C[C@H]2C(=O)O[C@H]3C[C@@H](C/C=C(\C)C[C@@H](C)/C=C/C=C4\CO[C@H]([C@@H]1O)[C@@]42O)O[C@]1(C3)C[C@H](O)[C@H](C)[C@@H](/C(C)=C/C(C)C)O1` [Nemadectin], the NFF_Activity entry in data set [1] (setting [6]) is “I (otherwise these were reported as inactive (I))”. The same molecule showed a T.vaginalis_%inb_Rep1 in data set [2] (setting [7]) of 11.56%. In data set [2] (setting [8]), this molecule showed a T.vaginalis_%inb_Rep2 of 13.53%.
For the molecule `COc1oc(C2C/C(=C/C(C)=C/C(C)=C/C(C)=C/c3ccc([N+](=O)[O-])cc3)CO2)c(C)c(=O)c1C` (centres unmarked) [Neoaureothin], the NFF_Activity entry in data set [1] (setting [6]) is “I (otherwise these were reported as inactive (I))”. For the same molecule, in data set [2] (setting [7]), the T.vaginalis_%inb_Rep1 came out at 14.76%. The molecule also registered a T.vaginalis_%inb_Rep2 in data set [2] (setting [8]) of 12.19%.
Turning to `CC(=O)OC[C@]12C[C@H](O)C(C)=C[C@H]1O[C@@H]1[C@H](O)[C@@H](OC(C)=O)[C@@]2(C)[C@]12CO2` [Neosolaniol], the NFF_Activity result in data set [1] was “I (key: active (A) compounds having >25% inhibitory activity; otherwise these were reported as inactive (I))”. In data set [2], the T.vaginalis_%inb_Rep1 turned out to be 8.23% and the T.vaginalis_%inb_Rep2 was found to be 6.22%.
For the molecule `O=C(O)CC[N+](=O)[O-]` [Nitropropionic acid, 3-], in data set [1] (setting [6]), the NFF_Activity entry is “I (otherwise these were reported as inactive (I))”. This molecule also registered a T.vaginalis_%inb_Rep1 in data set [2] (setting [7]) of 18.00%. Further, in data set [2] (setting [8]), the T.vaginalis_%inb_Rep2 came to 11.87%.
Regarding `CO[C@@H]1C[C@H]2C=C[C@H]3[C@H]4O[C@]2(/C(C)=C\[C@@H](C)[C@@H]([C@@H](C)O)OC1=O)[C@@H]3[C@H](O)[C@@H](C)[C@H]4O` [Nodusmicin], the NFF_Activity result in data set [1] (setting [6]) is “I (otherwise these were reported as inactive (I))”. Also, the T.vaginalis_%inb_Rep1 in data set [2] (setting [7]) was found to be 11.16%. The molecule further returned a T.vaginalis_%inb_Rep2 in data set [2] (setting [8]) of 10.52%.
The matching figures for `C[C@@H]1Cc2ccc(C(=O)N[C@@H](Cc3ccccc3)C(=O)O)c(O)c2C(=O)O1` [Ochratoxin B]: “I (otherwise these were reported as inactive (I))”, 13.18% and 9.36%.
Consider `CCOC(=O)[C@H](Cc1ccccc1)NC(=O)c1cc(Cl)c2c(c1O)C(=O)O[C@H](C)C2` [Ochratoxin C], for which the NFF_Activity entry in data set [1] (setting [6]) is “I (otherwise these were reported as inactive (I))”. The molecule also returned a T.vaginalis_%inb_Rep1 in data set [2] (setting [7]) of 15.37%. This molecule also displayed a T.vaginalis_%inb_Rep2 in data set [2] (setting [8]) of 4.81%.
The matching figures for `CCCCCCCCCCCCCCCCCC(=O)N[C@H]1CCOC1=O` [Octadecanoyl-L-homoserine lactone]: “I (otherwise these were reported as inactive (I))”, 12.02% and 13.47%.
Turning to `CCCCCCCC(=O)N[C@H]1CCOC1=O` [Octanoyl-L-homoserine lactone], in data set [1] (setting [6]), the NFF_Activity entry is “I (otherwise these were reported as inactive (I))”. The molecule further displayed a T.vaginalis_%inb_Rep1 in data set [2] (setting [7]) of 16.84%. The T.vaginalis_%inb_Rep2 in data set [2] (setting [8]) is given as 14.05%.
The matching figures for `CC[C@H]1/C=C/C=C/C[C@@H](C)[C@H](O)[C@@](C)(O)C(=O)[C@@H](C)[C@H](O)[C@@H](C)C(=O)[C@@H](C)[C@H](O)[C@@H](C)/C=C/C(=O)O[C@@H]2[C@H](C)[C@H](CC1)O[C@@]1(O[C@@H](C[C@@H](C)O)[C@@H](C)CC1=O)[C@H]2C` [Oligomycin B]: “I (otherwise these were reported as inactive (I))”, 12.98% and 13.09%.
Consider `CC[C@H]1/C=C/C=C/C[C@@H](C)[C@H](O)[C@@](C)(O)C(=O)[C@@H](C)[C@H](O)[C@@H](C)C(=O)[C@@H](C)[C@H](O)[C@@H](C)/C=C/C(=O)O[C@H]2C[C@@]3(CC[C@H](C)[C@H](C[C@@H](C)O)O3)O[C@@H](CC1)[C@H]2C` [Oligomycin D], for which the NFF_Activity entry in data set [1] was “I (key: active (A) compounds having >25% inhibitory activity; otherwise these were reported as inactive (I))”. Besides, the T.vaginalis_%inb_Rep1 in data set [2] (setting [7]) is 14.35%. In data set [2] (setting [8]), this molecule showed a T.vaginalis_%inb_Rep2 of 12.89%.
With `CC[C@H]1/C=C/C=C/C[C@@H](C)[C@H](O)[C@@](C)(O)C(=O)[C@@H](C)[C@H](O)[C@@H](C)C(=O)[C@@H](C)[C@H](O)[C@@H](C)/C=C/C(=O)O[C@@H]2[C@H](C)[C@H](CC1)O[C@@]1(O[C@@H](C[C@@H](C)O)[C@@H](C)CC1=O)[C@]2(C)O` [Oligomycin E], the NFF_Activity entry in data set [1] was “I (key: active (A) compounds having >25% inhibitory activity; otherwise these were reported as inactive (I))”. This molecule had a T.vaginalis_%inb_Rep1 in data set [2] (setting [7]) of 14.66%. This molecule registered a T.vaginalis_%inb_Rep2 in data set [2] (setting [8]) of 15.07%.
`CC(C)=CCC[C@H](C)[C@@]1(O)CC[C@]2(C)C[C@H]3[C@H](C(=O)C[C@@]3(C)O)/C(C=O)=C\C[C@H]21` [Ophiobolin B]: the NFF_Activity entry in data set [1] (setting [6]) is recorded as “A (active (A) compounds having >25% inhibitory activity)”. The T.vaginalis_%inb_Rep1 in data set [2] (setting [7]) turned out to be 11.82%. Moreover, in data set [2] (setting [8]), the T.vaginalis_%inb_Rep2 came out at 13.09%.
The matching figures for `COc1cc(C)c(C(=O)O)c(OC)c1` [Orsellinic acid dimethylether]: “I (otherwise these were reported as inactive (I))”, 12.73% and 13.02%.
The matching figures for `CC=CC=CC1OC(O)(C(C)C(O)C(C)C2OC(=O)C(OC)=CC(C)=CC(C)C(O)C(C)CC(C)=CC=CC2OC)CC(OC2CC(O)C(O)C(C)O2)C1C` (centres unmarked) [PC-766B]: “A (active (A) compounds having >25% inhibitory activity)”, 72.87% and 76.65%.
The matching figures for `CCC[C@H](O)C[C@@H]1CC[C@H](C)CCCCC(=O)N(C)[C@@H](Cc2ccc(OCCO)cc2)C(=O)O1` [PF1163A]: “I (otherwise these were reported as inactive (I))”, 11.61% and 10.39%.
Consider `CCCCC[C@@H]1CC[C@H](C)CCCCC(=O)N(C)[C@@H](Cc2ccc(OCCO)cc2)C(=O)O1` [PF1163B], for which the NFF_Activity result in data set [1] (setting [6]) was “I (otherwise these were reported as inactive (I))”. The molecule further returned a T.vaginalis_%inb_Rep1 in data set [2] (setting [7]) of 17.85%. Also, in data set [2] (setting [8]), the T.vaginalis_%inb_Rep2 came out at 14.30%.
With `C[C@H]1CCN2C[C@]34C[C@@]5(C(=O)Nc6c5ccc5c6OC=CC(C)(C)O5)C(C)(C)[C@@H]3C[C@]12C(=O)N4C` [Paraherquamide E], the NFF_Activity result in data set [1] (setting [6]) was “I (otherwise these were reported as inactive (I))”. The molecule also displayed a T.vaginalis_%inb_Rep1 in data set [2] (setting [7]) of 16.63%. Also, the T.vaginalis_%inb_Rep2 in data set [2] (setting [8]) is 15.01%.
